From patent publication US6441134B1, “Isolated Candida albicans oligopeptide transporter gene” (The University of Tennessee Research Corporation, dated 2002)
Starred links: 1 amine or outer side, 2 acyl side, 3 side chain; linkers in the order of their positions; H or OH if unused. Non-standard residues stand in square brackets, D forms with d. Residues, ends and D or L forms follow the SMILES beside them. No end group written: not given here. Eth = ethionine, CCSCC[C@H](N[*:1])C(=O)[*:2]; Ethionine = CCSCC[C@H](N[*:1])C(=O)[*:2]; hCys = N[C@@H](CCS)C(=O)O

T1: Candida albicans oligopeptide transporter Opt1p (protein product of OPT1) (Candida albicans)
T1 chain: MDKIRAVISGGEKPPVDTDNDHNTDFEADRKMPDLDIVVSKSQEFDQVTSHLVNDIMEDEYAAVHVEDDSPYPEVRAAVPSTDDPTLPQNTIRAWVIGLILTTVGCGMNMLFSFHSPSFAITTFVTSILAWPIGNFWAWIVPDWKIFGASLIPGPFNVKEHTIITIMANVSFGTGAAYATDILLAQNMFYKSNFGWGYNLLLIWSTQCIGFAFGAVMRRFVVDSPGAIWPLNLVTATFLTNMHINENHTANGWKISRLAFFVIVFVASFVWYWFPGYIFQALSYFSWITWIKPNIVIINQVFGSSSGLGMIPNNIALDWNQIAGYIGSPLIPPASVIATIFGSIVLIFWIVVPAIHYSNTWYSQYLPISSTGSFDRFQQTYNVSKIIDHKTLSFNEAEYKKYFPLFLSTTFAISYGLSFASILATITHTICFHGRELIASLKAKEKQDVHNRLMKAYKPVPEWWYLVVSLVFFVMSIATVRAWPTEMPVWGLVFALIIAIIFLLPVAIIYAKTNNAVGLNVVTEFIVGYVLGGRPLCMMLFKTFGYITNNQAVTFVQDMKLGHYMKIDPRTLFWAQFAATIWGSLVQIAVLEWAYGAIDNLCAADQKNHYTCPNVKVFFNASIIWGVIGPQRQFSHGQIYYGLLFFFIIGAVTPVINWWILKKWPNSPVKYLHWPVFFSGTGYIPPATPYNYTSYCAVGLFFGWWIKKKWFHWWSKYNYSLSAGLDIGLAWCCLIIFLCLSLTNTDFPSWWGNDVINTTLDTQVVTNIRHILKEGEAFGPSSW


What was measured:
[1] = test system: S. cerevisiae PB1X-9B(pOPT1); type: cell-based, Saccharomyces cerevisiae; settings: 0.38 μmoles per 6 mm disk; for zone of growth inhibition / sensitivity: 0.1% proline as nitrogen source; for zone of growth inhibition: ammonium sulfate as nitrogen source, 24-48 hr
Method: (§1) S. cerevisiae PB1X-9B is sensitive to the toxic amino acid ethionine Eth) but is resistant to ethionine containing di-, tri-, tetra-, and pentapeptides. Disk sensitivity assays was utilized to determine if cells transformed with pOPT1 were sensitive to toxic peptides and whether this sensitivity was dependent upon nitrogen source.
(§2) Sensitivity to ethionine, a toxic methionine analog, and ethionine-containing peptides was determined by the method described by Island et al. (1987). Cells were grown overnight to exponential phase of growth in SC, washed, and resuspended at 5×10^6 cells /ml in sterile water. One ml of this cell suspension was added to 3 ml molten Noble agar (0.8% final concentration) and overlayed on 20 ml of the same medium used to prepare the inoculum. A disk (6 mm diameter, Difco) was placed on the plate and 0.38 μmoles of the compounds to be tested were applied to the disks. Zones of inhibition were measured after 24-48 hr incubation at 30 iC. Each test comprised at least three independent assays and the results represented in the Tables are means of the values obtained. Maximum variation between the zones of inhibition measured for each test were ^23 mm. A value of 7 mm for the diameter of zone of inhibition represents a minimal growth inhibition value as the disk diameter was 6 mm. Photodocumentation of sensitivity assays was done with a Umax Scanner and processed through Adobe Photoshop.

[2] = test system: S. cerevisiae PB1X-9B(pRS202); assay: Disk sensitivity assay to ethionine-containing peptides, PB1X-9B(pRS202); type: cell-based, Saccharomyces cerevisiae; settings: for zone of growth inhibition / sensitivity: 0.1% proline as nitrogen source, 0.38 μmoles per 6 mm disk; for zone of growth inhibition: medium containing ammonium sulfate
Method: as §1, §2

[3] = test system: S. cerevisiae PB1X-9B(pOPT1); assay: Growth assay, peptides as sole source of leucine, PB1X-9B(pOPT1); type: cell-based, Saccharomyces cerevisiae; settings: 100 μM peptide; for utilization of peptide as a sole source of leucine (growth): medium with 0.1% proline as nitrogen source
Method: (§3) To determine the size constraints of peptide utilization mediated by pOPT1, the ability of S. cerevisiae PB1X-9B (a mutant in the di-/tripeptide transporter) harboring either pRS202 (the parent vector) or pOPT1 (pRS202 containing the 3.8 kb insert with the OPT1 gene) to grow on KL, KLG, KLLG SEQ ID NO:6, and KLLLG SEQ ID NO:8 as a sole source of leucine was tested. Previously it has been shown that di-/tripeptide transport activity in C. albicans and S. cerevisiae is regulated by nitrogen; rich nitrogen sources such as ammnonium sulfate repress, while poor nitrogen sources such as proline derepress transport. Therefore simultaneous effect of nitrogen source on oligopeptide transport activity was determined by supplying either ammnonium sulfate or proline as the nitrogen source.
(§4) Peptide medium consisted of minimal medium supplemented with auxotrophic requirements minus the amino acid Seucine plus 100 μM of one of the following peptidest Lysyl-Leucine (KL), Lysyl-Leucyl-Glycine (KLG), Lysyl-Leucyl-Leucyl-Glycine (KLLG) SEQ ID NO:6, Lysyl-Leucyl-Glycyl-Leucine (KLGL) SEQ ID NO:7, or Lysyl-Leucyl-Leucyl-Leucyl-Glycine (KLLLG) SEQ ID NO:8. Abbreviations for toxic peptides and amino acids used herein are as follows: Ethionine (Eth), Alanyl-Ethionine (AEth), Leucyl-Ethionine (LEth), Lysysl-Leucyl-Ethionine (KLEth), Lysyl-Leucyl-Leucyl-Ethionine (KLLEth) SEQ ID NO:12, Lysysl-Leucyl-Alanyl-Ethionine (KLAEth) SEQ ID NO:14, and Lysyl-Leucyl-Leucyl-Leucyl-Ethionine (KLLLEth) SEQ ID NO:13. All amino acids were in the L configuration.
(§5) Growth assays to determine the phenotype of the cells were done as described by Island et al. (1991). Briefly, 3 μl of culture from a suspension of 5×10^6 cells/ml were spotted to the surface of the medium and plates were incubated at 30 iC for 4-7 days.

[4] = test system: S. cerevisiae PB1X-9B(pRS202); assay: Growth assay, peptides as sole source of leucine, PB1X-9B(pRS202); type: cell-based, Saccharomyces cerevisiae; settings: medium with 0.1% proline as nitrogen source; 100 μM peptide
Method: as §3, §4, §5

[5] = test system: oligopeptide transporter (OPT1) expressed in S. cerevisiae PB1X-9B; assay: Peptide transport competition experiment, KLG-[3H]L uptake by PB1X-9B(pOPT1); type: cell-based, Candida albicans; settings: for uptake rate of KLG-[3H]L in the presence of the competitor: SC-Ura with ammonium sulfate; for competition with the uptake of KLG-[3H]L: 10-fold molar excess of competitor, FIG. 7
Method: To more rigorously determine the size constraints of the oligopeptide transporter, the accumulation of KLG-[^3H]L SEQ ID NO:7 was measured in the presence of 10-fold molar excess of the competitors L, KL, KLG, KLLG SEQ ID NO:6, and KLLLG SEQ ID NO:8. […] Uptake rates were calculated from a bestfit of the slope for each set of data. The uptake rate of KLG-[^3H]L SEQ ID NO:7 in the presence of no competitor, L, or KL was […] of dry weight, respectively. When KLG was used as a competitor the uptake rate was 0.12 nmoles/min/mg of dry weight which was approximately 50% of the no-competitor rate. The uptake rate approximated zero when KLLG SEQ ID NO:6 and KLLLG SEQ ID NO:8 were used as competitors.
Uptake of KLG-[^3H]L SEQ ID NO:7 was determined using a protocol for uptake of dipeptides as described by Basrai et al. (1995) with a few modifications. S. cerevisiae cultures were grown overnight to exponential phase in SC-Ura medium. Cells were harvested by centrifugation, and resuspended in 2% glucose at a cell density of 2×10^8 cells/ml. Two hundred and fifty microliters of cell suspension were added to an equal volume of an uptake assay reaction mixture and incubated at 30iC. The final concentrations of the components in the uptake assay solution were: glucose (2%, w/v), 10 mM sodium citrate/potassium phosphate buffer (pH 5.0), and KLG-[^3H]L SEQ ID NO:7 (150 μM; 8.5 mCi/mmol). Competition experiments were done in the presence of either 1.5 mM L, KL, KLG, KLLG SEQ ID NO:6, or KLLLG SEQ ID NO:8. At various time points, 90 μl portions were removed and filtered through a membrane. The yeast cells retained on the filter were washed twice with ice-cold distilled water, once with room temperature distilled water, and the residual radioactivity was measured by liquid scintillation. There was no peptide adsorption to the cell surface or sticking to filters since at 0i C the counts were at background level. The uptake results, calculated on the basis of 50% counting efficiency (determined using L-[^3H]lysine as a standard, and the specific activity of the peptide), were expressed as nmol of peptide uptake per minute per mg cell dry weight.

[6] = test system: S. cerevisiae PB1X-9B(pRS202); assay: Peptide transport assay, accumulation of KLG-[3H]L, PB1X-9B(pRS202); type: cell-based, Saccharomyces cerevisiae; settings: cells grown in SC-Ura with 0.1% proline
Method: To determine if S. cerevisiae transformants harboring pOPT1 could accumulate a radiolabeled tetrapeptide, uptake assays were performed with the radiolabeled substrate KLG-[^3H]L SEQ ID NO:7 with cells grown to log phase in SC-Ura with either ammonium sulfate or 0.1% proline as a nitrogen source. […] This higher initial rate can be explained by overexpression due to high copy number or alternatively by the lack of requisite regulatory elements which may be absent in the heterologous host.
Uptake of KLG-[^3H]L SEQ ID NO:7 was determined using a protocol for uptake of dipeptides as described by Basrai et al. (1995) with a few modifications. S. cerevisiae cultures were grown overnight to exponential phase in SC-Ura medium. Cells were harvested by centrifugation, and resuspended in 2% glucose at a cell density of 2×10^8 cells/ml. […] The yeast cells retained on the filter were washed twice with ice-cold distilled water, once with room temperature distilled water, and the residual radioactivity was measured by liquid scintillation. […] The uptake results, calculated on the basis of 50% counting efficiency (determined using L-[^3H]lysine as a standard, and the specific activity of the peptide), were expressed as nmol of peptide uptake per minute per mg cell dry weight.

[7] = biological target: T1, Candida albicans oligopeptide …; assay: cell-based or functional assay
[8] = 10-fold molar excess (1.5 mM) of competitor

Row | Molecule | zone of growth inhibition / sensitivity [1] | zone of growth inhibition / sensitivity [2] | uptake rate of KLG-[3H]L in the presence of the competitor [5, 8] | competition with the uptake of KLG-[3H]L [5] | other results
1 | CCSCC[C@H](NC(=O)[C@H](C)N)C(=O)O [AEth, Alanyl-Ethionine] (H-Ala-[hCys](Et)-OH) | Neither strain exhibited sensitivity | Neither strain exhibited sensitivity |  |  | zone of growth inhibition [1]: no zone of growth inhibition
2 | CC(C)C[C@H](NC(=O)[C@@H](N)CCCCN)C(=O)O [KL, Lysyl-Leucine] (H-Lys-Leu-OH) |  |  | 0.26 nm/min/mg of dry weight | do not compete | utilization of peptide as a sole source of leucine (growth) [3]: No growth; utilization of peptide as a sole source of leucine (growth) [4]: No growth
3 | CC(C)C[C@H](NC(=O)[C@@H](N)CCCCN)C(=O)NCC(=O)O [KLG, Lysyl-Leucyl-Glycine] (H-Lys-Leu-Gly-OH) |  |  | 0.12 nmoles/min/mg of dry weight | decreased competition | utilization of peptide as a sole source of leucine (growth) [3]: No growth; utilization of peptide as a sole source of leucine (growth) [4]: No growth; uptake rate with competitor as percent of the no-competitor rate [5, 8]: approximately 50%
4 | CC(C)C[C@H](NC(=O)CNC(=O)[C@H](CC(C)C)NC(=O)[C@@H](N)CCCCN)C(=O)O [KLGL, Lysyl-Leucyl-Glycyl-Leucine] (H-KLGL-OH) |  |  |  |  | accumulation of tetrapeptide [6]: did accumulate
5 | CCSCC[C@H](NC(=O)[C@H](CC(C)C)NC(=O)[C@H](CC(C)C)NC(=O)[C@@H](N)CCCCN)C(=O)O [KLLEth, Lysyl-Leucyl-Leucyl-Ethionine] (H-KLL[hCys](Et)-OH) | zone of complete growth inhibition | not for PB1X-9B(pRS202) |  |  | zone of growth inhibition [2]: not PB1X-9B(pRS202)
6 | CC(C)C[C@H](NC(=O)[C@H](CC(C)C)NC(=O)[C@@H](N)CCCCN)C(=O)NCC(=O)O [KLLG, Lysyl-Leucyl-Leucyl-Glycine] (H-KLLG-OH) |  |  | zero | competition was seen | utilization of peptide as a sole source of leucine (growth) [3]: able to utilize; utilization of peptide as a source of leucine (growth) ([3]; medium with ammonium sulfate as nitrogen source): able to utilize; utilization of peptide as a sole source of leucine (growth) [4]: not able to utilize
7 | CC(C)C[C@H](N)C(=O)O [L, leucine] |  |  | 0.25 nm/min/mg of dry weight | do not compete | 
8 | CCSCC[C@H](NC(=O)[C@@H](N)CC(C)C)C(=O)O [LEth, Leucyl-Ethionine] (H-Leu-[hCys](Et)-OH) |  |  |  |  | zone of growth inhibition [1]: no zone of growth inhibition
9 | KLLAEth: ethionine-containing toxic pentapeptide, SEQ ID NO:15 (KLLA[Eth]) | zone of complete growth inhibition | not for PB1X-9B(pRS202) |  |  | zone of growth inhibition [2]: not PB1X-9B(pRS202)
10 | KLLLG [KLLLG, Lysyl-Leucyl-Leucyl-Leucyl-Glycine] |  |  | zero | competition was seen | utilization of peptide as a sole source of leucine (growth) [3]: No growth; utilization of peptide as a sole source of leucine (growth) [4]: No growth
11 | Lysysl-Leucyl-Alanyl-Ethionine (KLA[Ethionine]) [KLAEth] | zone of complete growth inhibition | not for PB1X-9B(pRS202) |  |  | zone of growth inhibition [2]: not PB1X-9B(pRS202)
12 | Lysysl-Leucyl-Ethionine [KLEth] | Neither strain exhibited sensitivity | Neither strain exhibited sensitivity |  |  | zone of growth inhibition [1]: no zone of growth inhibition
13 | KL [Lysyl-Leucine] |  |  |  |  | uptake rate of KLG-[3H]L in the presence of a 10-fold molar excess of the competitor [7]: 0.26 nm/min/mg of dry weight
14 | KLG [Lysyl-Leucyl-Glycine] |  |  |  |  | uptake rate of KLG-[3H]L in the presence of a 10-fold molar excess of the competitor [7]: 0.12 nmoles/min/mg of dry weight
